According to US5324502A, “Radiopharmaceuticals for imaging the heart” (priority 1992, dated 1994):
Like-named read-outs stand apart in the source and are kept apart here.

Assays:
[1] = Octanol/water partition coefficient of radiolabeled gallium complexes; type: physicochemical; settings: octanol/tris buffer, pH 7
Protocol: Octanol/water partition coefficients were measured by vortex mixing 1 mL of 1-octanol and 1 mL of isotonic Tris buffer (pH 7.0) with a 1-5 μL sample of the radiolabeled gallium complex. Following centrifugation at >1200 g for 5 minutes, the octanol and aqueous phases were sampled and counted in an automatic well counter.

[2] = rat, i.v.
Protocol: The gallium-67 complexes are prepared by ligand exchange from gallium-67 chloride, employing the tris(acetylacetonato)gallium(III) complex as an intermediate. The Ga-67 acetylacetonate in ethanol is reacted with the chelating ligand or ligand precursor at elevated temperature to form rapidly the desired gallium radiopharmaceutical. […] The biodistribution of several radiopharmaceuticals was determined in rats following intravenous injection using techniques previously described (M. A. Green, Nuclear Medicine and Biology 14:59-61, 1987; E. John and M. A. Green, J. Medicinal Chemistry, 33:1764-1770, 1990).
Under ether anesthesia, 1 to 3 μCi (0.1-0.2 mL) of no-carrier-added Ga-67 compound was administered by bolus injection into the femoral vein of male Sprague-Dawley rats. The ether anesthetized rats were sacrificed by decapitation at given time intervals post-injection, organs of interest were removed, weighed, and the gallium-67 activity counted. The biodistribution was calculated as a percentage of the injected dose per gram of tissue and percentage of injected dose per organ for each sample.

CCN(CC)c1ccc(C=NCCCNCCNCCCN=Cc2ccc(N(CC)CC)cc2[O-])c([O-])c1.[67Ga+3] [(4-deaSal)2 BAPEN]
log P [1]: 2.44 | % Injected Dose per Gram Tissue, Blood ([2]; 1 min): 0.80 ± 0.01 % Injected Dose per Gram Tissu | % Injected Dose per Gram Tissue, Brain ([2]; 1 min): 0.04 ± 0.01 % Injected Dose per Gram Tissu | % Injected Dose per Gram Tissue, Heart ([2]; 1 min): 0.98 ± 0.07 % Injected Dose per Gram Tissu | % Injected Dose per Gram Tissue, Kidney (one) ([2]; 1 min): 7.22 ± 0.48 % Injected Dose per Gram Tissu | % Injected Dose per Gram Tissue, Liver ([2]; 1 min): 4.15 ± 0.25 % Injected Dose per Gram Tissu | % Injected Dose per Gram Tissue, Lungs ([2]; 1 min): 1.16 ± 0.06 % Injected Dose per Gram Tissu | % Injected Dose per Gram Tissue, Spleen ([2]; 1 min): 1.22 ± 0.47 % Injected Dose per Gram Tissu | % injected dose in heart, 1 min ([2]; 1 min, preliminary studies): 0.69 ± 0.05 % injected dose | % Injected Dose Per Gram of Tissue, Blood ([2]; 5 min): 0.39 ± 0.05 % Injected Dose Per Gram of Tissue | % Injected Dose Per Gram of Tissue, Brain ([2]; 5 min): 0.02 ± 0.01 % Injected Dose Per Gram of Tissue | % Injected Dose Per Gram of Tissue, Heart ([2]; 5 min): 0.91 ± 0.06 % Injected Dose Per Gram of Tissue | % Injected Dose Per Gram of Tissue, Kidney (1) ([2]; 5 min): 7.11 ± 0.89 % Injected Dose Per Gram of Tissue | % Injected Dose Per Gram of Tissue, Liver ([2]; 5 min): 3.96 ± 0.28 % Injected Dose Per Gram of Tissue | % Injected Dose Per Gram of Tissue, Lungs ([2]; 5 min): 0.89 ± 0.19 % Injected Dose Per Gram of Tissue | % Injected Dose Per Gram of Tissue, Spleen ([2]; 5 min): 1.19 % Injected Dose Per Gram of Tissue | % Injected Dose per Gram Tissue, Blood ([2]; 15 min): 0.20 ± 0.03 % Injected Dose per Gram Tissu | % Injected Dose per Gram Tissue, Brain ([2]; 15 min): 0.02 ± 0.00 % Injected Dose per Gram Tissu | % Injected Dose per Gram Tissue, Heart ([2]; 15 min): 0.90 ± 0.06 % Injected Dose per Gram Tissu | % Injected Dose per Gram Tissue, Kidney (one) ([2]; 15 min): 6.82 ± 0.53 % Injected Dose per Gram Tissu | % Injected Dose per Gram Tissue, Liver ([2]; 15 min): 3.21 ± 0.25 % Injected Dose per Gram Tissu | % Injected Dose per Gram Tissue, Lungs ([2]; 15 min): 0.70 ± 0.07 % Injected Dose per Gram Tissu | % Injected Dose per Gram Tissue, Spleen ([2]; 15 min): 1.27 ± 0.17 % Injected Dose per Gram Tissu | % Injected Dose per Gram Tissue, Blood ([2]; 120 min): 0.10 ± 0.01 % Injected Dose per Gram Tissu | % Injected Dose per Gram Tissue, Brain ([2]; 120 min): 0.02 ± 0.01 % Injected Dose per Gram Tissu | % Injected Dose per Gram Tissue, Heart ([2]; 120 min): 0.92 ± 0.10 % Injected Dose per Gram Tissu | % Injected Dose per Gram Tissue, Kidney (one) ([2]; 120 min): 5.69 ± 0.75 % Injected Dose per Gram Tissu | % Injected Dose per Gram Tissue, Liver ([2]; 120 min): 1.07 ± 0.10 % Injected Dose per Gram Tissu | % Injected Dose per Gram Tissue, Lungs ([2]; 120 min): 0.53 ± 0.06 % Injected Dose per Gram Tissu | % Injected Dose per Gram Tissue, Spleen ([2]; 120 min): 0.99 ± 0.18 % Injected Dose per Gram Tissu | % injected dose in heart, 2 h ([2]; 2 h, preliminary studies): 0.65 ± 0.05 % injected dose | Heart/Blood ([2]; ratio, 1 min): 1.22 ± 0.08 | Heart/Liver ([2]; ratio, 1 min): 0.24 ± 0.03 | Heart/Lungs ([2]; ratio, 1 min): 0.85 ± 0.10 | Heart/Blood ([2]; ratio, 5 min): 2.36 ± 0.25 | Heart/Liver ([2]; ratio, 5 min): 0.23 ± 0.02 | Heart/Lung ([2]; ratio, 5 min): 1.05 ± 0.19 | Heart/Blood ([2]; ratio, 15 min): 4.54 ± 0.31 | Heart/Liver ([2]; ratio, 15 min): 0.28 ± 0.04 | Heart/Lungs ([2]; ratio, 15 min): 1.29 ± 0.05 | Heart/Blood ([2]; ratio, 120 min): 9.21 ± 1.12 | Heart/Liver ([2]; ratio, 120 min): 0.86 ± 0.18 | Heart/Lungs ([2]; ratio, 120 min): 1.74 ± 0.35
